What was measured:
[1] = molecular target: human 5-HT2A receptor (Homo sapiens (Human), UniProt P28223); experiment: Radioligand binding ([3H]-ketanserin) to human 5-HT2A receptor, HEK293 EBNA membranes; settings: HEK293 EBNA cells expressing human 5-HT2A receptor
Experimental: The ability of the compounds to bind to the 5-HT2A, D3 and D2 receptors was determined using radioligand binding to cloned receptors selectively expressed in HEK-293 EBNA cells.
(§1) HEK293 EBNA cells were transiently transfected with expression plasmids encoding for the human D2 or D3 or for the human 5-HT2A receptor, respectively. The cells were harvested 48 h post-transfection, washed three times with cold PBS and stored at −80° C. prior to use. The pellet was suspended in cold 50 mM Tris-HCl buffer containing 10 mM EDTA (pH 7.4) and was homogenized with a Polytron (Kinematica AG, Basel, Switzerland) for 20-30 sec at 12.000 rpm. After centrifugation at 48.000×g for 30 min at 4° C., the pellet was resuspended in cold 10 mM Tris-HCl buffer containing 0.1 mM EDTA (pH 7.4), homogenized, and centrifuged as above. This pellet was further resuspended in a smaller volume of ice cold 10 mM Tris-HCl buffer containing 0.1 mM EDTA (pH 7.4) and homogenized with a Polytron for 20-30 sec at 12.000 rpm. The protein content of this homogenate was determined with the Bio-Rad (Bradford) Protein Assay (Biorad Laboratories GmbH, München, Germany) according to the instructions of the manufacturer using gamma globulin as the standard. This homogenate was stored at −80° C. in aliquots and thawed immediately prior to use.
(§2) Aliquots of membrane preparations were thawed at RT, resuspended in assay buffer (D2, D3: 50 mM Tris-HCl, 120 mM NaCl, 5 mM MgCl2, 1 mM EDTA, 5 mM KCl, 1.5 mM CaCl2, pH=7.4; 5-HT2A: 50 mM Tris-HCl, 10 mM MgCl2, 1 mM EGTA, pH=7.4), homogenized with a Polytron for 20-30 sec at 12.000 rpm and adjusted to a final concentration of approximately 7.5 μg protein/well (D2, D3) and 15 μg protein/well (5-HT2A), respectively.
(§3) The binding affinity (Ki) of the compounds was determined using radioligand binding.
(§4) Membranes were incubated in a total volume of 200 μl with a fixed concentration of radioligand (final concentration approximately 0.7 nM [^3H]-spiperone for D2, 0.5 nM [^3 H]-spiperone for D3, and 1.1 nM [^3H]-ketanserin for 5-HT2A) and ten concentrations of test compound in ranging between 10 μM-0.1 nM for 1 h at RT. At the end of the incubation, the reaction mixtures were filtered on to unifilter 96-well white microplates with bonded GF/C filters (Packard BioScience, Zürich, Switzerland; preincubated for 1 h in 0.1% polyethylenimine (PEI) in assay buffer) with a Filtermate 196 harvester (Packard BioScience) and washed 3 times with cold assay buffer. The nonspecific binding was determined with equally composed reaction mixtures in the presence of 10 μM unlabelled spiperone. Per well 45 μl of Microscint 40 (Perkin Elmer, Schwerzenbach, Switzerland) was added, plates for sealed, shaken for 20 min and counted for 3 min on a Topcount Microplate Scintillation Counter (Canberra Packard SA, Zürich, Switzerland) with quenching correction.
(§5) The CPM value for each duplicate of a concentration of competing compound was averaged (y1), then the % specific binding was calculated according to the equation (((y1−non-specific)/(total binding−non-specific))×100). Graphs were plotted with the % specific binding using XLfit, a curve-fitting program that iteratively plots the data using Levenberg-Marquardt algorithm. The single site competition analysis equation used was y=A+((B−A)/(1+((x/C)D))), where y is the % specific binding, A is the minimum y, B is the maximum y, C is the IC50, x is the log 10 of the concentration of the competing compound and D is the slope of the curve (the Hill Coefficient). From these curves the IC50 (inhibition concentration at which 50% specific binding of the radioligand was displaced) and Hill coefficient were determined. The affinity constant (Ki) was calculated using the Cheng-Prusoff equation Ki=(IC50/1+([L]/Kd), where [L] is the concentration of radioligand and Kd is the dissociation constant of the radioligand at the receptor as determined by the saturation isotherm.

[2] = molecular target: human D3 receptor (Homo sapiens (Human), UniProt P35462); experiment: Radioligand binding ([3H]-spiperone) to human D3 receptor, HEK293 EBNA membranes; settings: HEK293 EBNA cells expressing human D3 receptor
Sequence of human D3 receptor (P35462 whole entry): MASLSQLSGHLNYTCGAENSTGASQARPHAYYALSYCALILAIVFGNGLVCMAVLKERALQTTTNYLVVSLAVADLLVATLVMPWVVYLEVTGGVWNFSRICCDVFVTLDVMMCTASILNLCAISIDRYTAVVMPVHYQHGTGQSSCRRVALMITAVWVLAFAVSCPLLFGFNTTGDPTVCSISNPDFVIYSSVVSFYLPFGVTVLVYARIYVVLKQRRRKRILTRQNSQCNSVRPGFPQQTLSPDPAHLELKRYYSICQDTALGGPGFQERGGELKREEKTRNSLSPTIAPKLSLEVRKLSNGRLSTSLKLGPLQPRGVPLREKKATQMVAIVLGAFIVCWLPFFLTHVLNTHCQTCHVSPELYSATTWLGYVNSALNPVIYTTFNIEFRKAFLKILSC
Experimental: as §1, §2, §3, §4, §5

[3] = molecular target: human D2 receptor (Homo sapiens (Human), UniProt P14416); experiment: Radioligand binding ([3H]-spiperone) to human D2 receptor, HEK293 EBNA membranes; settings: HEK293 EBNA cells expressing human D2 receptor
Sequence of human D2 receptor (P14416 whole entry): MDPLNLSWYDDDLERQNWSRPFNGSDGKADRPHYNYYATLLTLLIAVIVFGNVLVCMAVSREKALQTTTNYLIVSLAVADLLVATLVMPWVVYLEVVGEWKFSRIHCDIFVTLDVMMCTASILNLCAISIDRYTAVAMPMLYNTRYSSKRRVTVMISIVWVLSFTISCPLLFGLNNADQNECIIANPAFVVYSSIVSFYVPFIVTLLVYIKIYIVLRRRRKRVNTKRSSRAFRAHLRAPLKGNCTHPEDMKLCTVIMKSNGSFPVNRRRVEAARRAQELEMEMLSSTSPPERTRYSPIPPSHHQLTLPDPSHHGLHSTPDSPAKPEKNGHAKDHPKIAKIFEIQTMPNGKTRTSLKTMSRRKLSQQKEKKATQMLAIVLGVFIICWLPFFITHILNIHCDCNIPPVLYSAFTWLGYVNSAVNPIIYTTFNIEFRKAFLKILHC
Experimental: as §1, §2, §3, §4, §5

Sequence of human 5-HT2A receptor (P28223 whole entry): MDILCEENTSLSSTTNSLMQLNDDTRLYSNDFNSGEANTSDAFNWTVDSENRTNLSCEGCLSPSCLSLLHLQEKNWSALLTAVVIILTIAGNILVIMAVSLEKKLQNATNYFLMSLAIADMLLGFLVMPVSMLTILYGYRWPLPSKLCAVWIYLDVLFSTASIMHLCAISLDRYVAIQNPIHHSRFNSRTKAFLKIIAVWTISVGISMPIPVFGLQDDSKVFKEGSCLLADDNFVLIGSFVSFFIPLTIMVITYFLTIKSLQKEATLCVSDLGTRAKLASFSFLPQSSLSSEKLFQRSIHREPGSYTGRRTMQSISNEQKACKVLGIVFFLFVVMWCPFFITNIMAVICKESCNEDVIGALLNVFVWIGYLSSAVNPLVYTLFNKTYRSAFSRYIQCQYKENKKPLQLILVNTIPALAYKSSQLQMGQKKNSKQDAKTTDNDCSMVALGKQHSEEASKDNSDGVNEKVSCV

| SMILES | melting point [°C] | Ki [1] [nM] | Ki [2] [nM] | Ki [3] [nM] |
| --- | --- | --- | --- | --- |
| O=C(CC1COCCO1)N[C@H]1CC[C@H](CCN2CCC(c3coc4ccccc34)CC2)CC1 (mixture of isomers) [Example 8, trans-N-{4-[2-(4-Benzofuran-3-yl-piperidin-1-yl)-ethyl]-cyclohexyl}-(RS)-2-[1,4]dioxan-2-yl-acetamide] | 172 | 2.04 | 2.02 |  |
| O=C(N[C@H]1CC[C@H](CCN2CCC(c3coc4ccccc34)CC2)CC1)C1CCOC1 (mixture of isomers) [Example 17, (RS)-Tetrahydro-furan-3-carboxylic acid trans-{4-[2-(4-benzofuran-3-yl-piperidin-1-yl)-ethyl]-cyclohexyl}-amide] | 183 | 5.93 |  | 53 |
| O=C(N[C@H]1CC[C@H](CCN2CCC(c3coc4ccccc34)CC2)CC1)C1CCCO1 (mixture of isomers) [Example 18, (RS)-Tetrahydro-furan-2-carboxylic acid trans-{4-[2-(4-benzofuran-3-yl-piperidin-1-yl)-ethyl]-cyclohexyl}-amide] | 132 | 2.88 | 9.2 | 81.5 |
| CCC(C)C(=O)N[C@H]1CC[C@H](CCN2CCC(c3coc4ccccc34)CC2)CC1 (mixture of isomers) [Example 31, trans-N-{4-[2-(4-Benzofuran-3-yl-piperidin-1-yl)-ethyl]-cyclohexyl}-(RS)-2-methyl-butyramide] | 172 | 6.56 | 4.83 | 46 |
| O=C(N[C@H]1CC[C@H](CCN2CCC(c3coc4ccccc34)CC2)CC1)C(O)C(F)(F)F (mixture of isomers) [Example 32, trans-N-{4-[2-(4-Benzofuran-3-yl-piperidin-1-yl)-ethyl]-cyclohexyl}-(RS)-3,3,3-trifluoro-2-hydroxy-propionamide] | 206 | 6.08 | 4.02 | 46.4 |
| CC(=O)N[C@H]1CC[C@H](CCN2CCC(c3coc4ccccc34)CC2)CC1 [Example 1, trans-N-{4-[2-(4-Benzofuran-3-yl-piperidin-1-yl)-ethyl]-cyclohexyl}-acetamide] | 162 | 5.08 | 1.08 | 50.4 |
| COCCC(=O)N[C@H]1CC[C@H](CCN2CCC(c3coc4ccccc34)CC2)CC1 [Example 2, trans-N-{4-[2-(4-Benzofuran-3-yl-piperidin-1-yl)-ethyl]-cyclohexyl}-3-methoxy-propionamide] | 136 | 4.63 | 1.22 | 71.2 |
| O=C(N[C@H]1CC[C@H](CCN2CCC(c3coc4ccccc34)CC2)CC1)C1CCOCC1 [Example 3, Tetrahydro-pyran-4-carboxylic acid trans-{4-[2-(4-benzofuran-3-yl-piperidin-1-yl)-ethyl]-cyclohexyl}-amide] | 175 | 2.44 | 4.53 | 37.3 |
| O=C(CC1CCOCC1)N[C@H]1CC[C@H](CCN2CCC(c3coc4ccccc34)CC2)CC1 [Example 4, trans-N-{4-[2-(4-Benzofuran-3-yl-piperidin-1-yl)-ethyl]-cyclohexyl}-2-(tetrahydro-pyran-4-yl)-acetamide] | 175 | 5.37 | 3.14 | 77.6 |
| CCC(=O)N[C@H]1CC[C@H](CCN2CCC(c3coc4ccccc34)CC2)CC1 [Example 5, trans-N-{4-[2-(4-Benzofuran-3-yl-piperidin-1-yl)-ethyl]-cyclohexyl}-propionamide] | 162 | 4.52 | 1.23 | 48.1 |
| COCC(=O)N[C@H]1CC[C@H](CCN2CCC(c3coc4ccccc34)CC2)CC1 [Example 6, trans-N-{4-[2-(4-Benzofuran-3-yl-piperidin-1-yl)-ethyl]-cyclohexyl}-2-methoxy-acetamide] | 115 | 3.36 | 3.52 | 80.1 |
| CS(=O)(=O)CC(=O)N[C@H]1CC[C@H](CCN2CCC(c3coc4ccccc34)CC2)CC1 [Example 7, trans-N-{4-[2-(4-Benzofuran-3-yl-piperidin-1-yl)-ethyl]-cyclohexyl}-2-methanesulfonyl-acetamide] | 187 | 3.54 | 1.45 | 50.8 |
| O=C(N[C@H]1CC[C@H](CCN2CCC(c3coc4ccccc34)CC2)CC1)c1ccccc1 [Example 9, trans-N-{4-[2-(4-Benzofuran-3-yl-piperidin-1-yl)-ethyl]-cyclohexyl}-benzamide] | 189 | 4.36 | 1.34 | 32.3 |
| Cc1cc(CC(=O)N[C@H]2CC[C@H](CCN3CCC(c4coc5ccccc45)CC3)CC2)on1 [Example 10, trans-N-{4-[2-(4-Benzofuran-3-yl-piperidin-1-yl)-ethyl]-cyclohexyl}-2-(3-methyl-isoxazol-5-yl)-acetamide] | 165 | 7.71 | 0.68 | 83.6 |
| O=C(CO)N[C@H]1CC[C@H](CCN2CCC(c3coc4ccccc34)CC2)CC1 [Example 11, trans-N-{4-[2-(4-Benzofuran-3-yl-piperidin-1-yl)-ethyl]-cyclohexyl}-2-hydroxy-acetamide] | 161 | 4.92 | 1.47 | 46.5 |
| O=C(CC(F)(F)F)N[C@H]1CC[C@H](CCN2CCC(c3coc4ccccc34)CC2)CC1 [Example 12, trans-N-{4-[2-(4-Benzofuran-3-yl-piperidin-1-yl)-ethyl]-cyclohexyl}-3,3,3-trifluoro-propionamide] | 182 | 8.06 | 0.99 | 42.7 |
| O=C(N[C@H]1CC[C@H](CCN2CCC(c3coc4ccccc34)CC2)CC1)c1ccc(N2CCOCC2)cc1 [Example 13, trans-N-{4-[2-(4-Benzofuran-3-yl-piperidin-1-yl)-ethyl]-cyclohexyl}-4-morpholin-4-yl-benzamide] | 249 | 11.1 | 7.4 | 406 |
| CC(C)C(=O)N[C@H]1CC[C@H](CCN2CCC(c3coc4ccccc34)CC2)CC1 [Example 14, trans-N-{4-[2-(4-Benzofuran-3-yl-piperidin-1-yl)-ethyl]-cyclohexyl}-isobutyramide] | 173 | 5.75 | 1.78 | 39.5 |
| CC(C)CC(=O)N[C@H]1CC[C@H](CCN2CCC(c3coc4ccccc34)CC2)CC1 [Example 15, trans-N-{4-[2-(4-Benzofuran-3-yl-piperidin-1-yl)-ethyl]-cyclohexyl}-3-methyl-butyramide] | 182 | 8.65 | 1.94 | 43.5 |
| CC(C)(O)C(=O)N[C@H]1CC[C@H](CCN2CCC(c3coc4ccccc34)CC2)CC1 [Example 16, trans-N-{4-[2-(4-Benzofuran-3-yl-piperidin-1-yl)-ethyl]-cyclohexyl}-2-hydroxy-2-methyl-propionamide] | 169 | 2.25 | 5.51 | 53.7 |

From patent US8921397B2, “Benzofurane-piperidine compounds” (Hoffmann-La Roche Inc., priority 2011, dated 2014)
